Experiments:
[1] = biological target: poly(dGdC)2 (GC-DNA); assay: Fluorimetric titration with GC-DNA; type: binding; settings: for log Ka / Ka (order of magnitude): GC-DNA; for Ka (order of magnitude): sodium cacodylate buffer, pH 7.0, I = 0.05 mol dm^−3, Scatchard equation; for K (fit parameter of titration curve): poly(dGdC)2, pH=7.0, sodium cacodylate buffer, I = 0.05 mol dm-3
Method: Materials. Polynucleotides were purchased as noted: poly A–poly U, calf thymus ctDNA, poly(dAdT)2 and poly(dGdC)2 (Sigma-Aldrich, St. Louis, MI, USA). Polynucleotides were dissolved in Na-cacodylate buffer, I = 0.05 mol dm^−3, pH = 7.0. The calf thymus ctDNA was additionally sonicated and filtered through a […]. Polynucleotide concentration was determined spectroscopically as the concentration of phosphates. Spectrophotometric titrations were performed at pH = 7.0 (I = 0.05 mol dm^−3, sodium cacodylate buffer) by adding aliquots of polynucleotide solution into the solution of the studied compound for fluorimetric experiments and CD experiments were done by adding aliquots of the compound stock solution into the solution of a polynucleotide. In fluorimetric experiments, an excitation wavelength of λexc = 425, 431, 423, 427, 406 and 407 nm, respectively, was used to avoid the inner filter effect caused due to increasing absorbance of the polynucleotide. Emission was collected in the range λem = 400–700 nm. Values for Ka obtained by processing titration data using the Scatchard equation [27], all have satisfactory correlation coefficients (≥0.98). Furthermore, linear changes were evident with increasing DNA or RNA concentration in most titrations. The exceptions to this were titrations of cyanine 3 with GC-DNA and titrations of dye 5 with ds-DNA and ds-RNA where sufficient data points in the non-linear part of the curve allowed estimation of binding affinity (Ka values were of the order 10^5 mol^−1 dm^−3; Figures S16, S22 and S23 in SI). Titration data were collected at a high excess of polynucleotide binding sites (r[1–6]/[nucleotide phosphate] < 0.1; see Figures S9–S26 in SI) where each molecule can bind to a separate binding site. Binding affinities of dye-DNA/RNA complexes were calculated by non-linear fitting using the Scatchard equation [27, 33]. The fluorescence changes of dye 5 in the titration with AT-DNA were too small to obtain an accurate binding constant (Figure S21 in SI).

[2] = system: MDA-MB-435S cells; assay: MTT cytotoxicity assay, MDA-MB-435S; type: cell-based; settings: Homo sapiens, 72 h incubation, ± SD
Method: Human cervical carcinoma HeLa (GIBCO BRL, Invitrogen, Waltham, MA, USA), human melanoma MDA-MB-435S and human ovarian adenocarcinoma SK-OV-3 (ATCC-LGC Standards GmbH, Wesel, Germany) cell lines were purchased from indicated cell culture banks. Normal human skin fibroblasts were isolated from the upper arm of a donor at the Neurochemical Laboratory, Department of Chemistry and Biochemistry, School of Medicine, University of Zagreb. HeLa, MDA-MB-435S and fibroblasts were grown in Dulbecco’s Modified Eagle’s Medium (DMEM; Sigma-Aldrich, St. Louis, MI, USA) while the SK-OV-3 cell line was grown in McCoy’s 5A medium (Capricorn Scientific, Ebsdorfergrund, Germany). All media were supplemented with 10% fetal bovine serum (FBS; Sigma-Aldrich) and 50 I.U./mL penicillin and 50 μg/mL streptomycin. Cells were cultured in a humidified atmosphere of 5% CO2 at 37 °C and were sub-cultured every 3–4 days. HeLa, MDA-MB-435S, SK-OV-3 cells and fibroblasts were seeded in 96 well plates. Twenty-four hours later the cells were treated, in quadruplicate, with different concentrations of compounds (dissolved in DMSO, kept at 4 °C and protected from light). Following 72 h of incubation at 37 °C, the medium was aspired and modified 3-(4,5-dimethylthiazol-2-yl)-2,5-diphenyltetrazolium bromide (MTT) assay was used to determine the cytotoxic effect of the tested compounds. Three hours later, formazan crystals were dissolved in DMSO (0.17 mL/well), the plates were mechanically agitated for 20 min and the optical density at 600 nm was determined on a microtiter plate reader (Awareness Technology Inc., Palm City, FL, USA). The experiments were repeated three times.

[3] = Solubility and aggregation (UV/Vis characterization); type: physicochemical; settings: sodium cacodylate buffer, I = 0.05 mol dm^−3, pH = 7.0; UV/Vis
Method: The UV/vis spectra were recorded on a Varian Cary 100 Bio spectrophotometer (Agilent, Santa Clara, CA, USA), CD spectra on JASCO J815 spectrophotometer (ABL&E Handels GmbH, Wien, Austria) and fluorescence spectra on a Varian Cary Eclipse spectrophotometer (Agilent, Santa Clara, CA, USA) at 25 °C using appropriate 1 cm path quartz cuvettes.
Studied compounds, 1–6 were soluble (c = 8 × 10^−4 mol dm^−3) in DMSO. […] Therefore, the stock solution of 2 was prepared fresh before use. The experiments were done in aqueous buffer (sodium cacodylate buffer, I = 0.05 mol dm^−3; pH = 7.0).
However, the shape of UV/Vis spectra of cyanine 2 changed with increasing concentration (calibration experiment in Figure S2 in SI). In addition to the dominant maximum at 432 nm (which most likely corresponds to the monomer form of the dye), the absorption band at 413 nm becomes more intense (Figure S2 in SI). Presumably, it corresponds to the aggregated form (H-aggregate). Based on the existence of an absorption band at 432 nm, only the monomer dye form is visible at high temperature (95 °C) (Figure S8b in SI). However, after cooling the solution to 25 °C, an additional band appears at 413 nm, which corresponds to the aggregated dye form.

| Compound | log Ka [1] | Ka (order of magnitude) [1] | K (fit parameter of titration curve) [1] | IC50 [2] | Aggregation in aqueous buffer [3] |
| --- | --- | --- | --- | --- | --- |
| CN1/C(=C/c2[se]c3ccccc3[n+]2C)Sc2ccccc21 [Compound 3, 3-methyl-2-((3-methylbenzo[d]thiazol-2(3H)-ylidene)methyl)benzo[d][1,3]selenazol-3-ium methosulphate] | 5 | ~10^5 mol^−1 dm^−3 | 183746.7242 ±8918685.57223 | 0.987 ± 0.177 µM | do not form aggregates |
| C[n+]1c(/C=C2\Sc3ccccc3N2CCCS)[se]c2ccccc21 [Compound 5, 2-((3-(3-mercaptopropyl)benzo[d]thiazol-2(3H)-ylidene)methyl)-3-methylbenzo[d][1,3]selenazol-3-ium methosulphate] | 5 | ~10^5 mol^−1 dm^−3 | 282880.22043 ±15074133.56759 | 37.1 ± 3.02 µM | significantly aggregate |
